From patent publication US6387647B1 (priority 1993, dated 2002)

What was measured:
[1] = tested on: Saccharomyces cerevisiae strain DCX45(pML82)-1B (disrupted cytochrome P450 reductase gene) versus strain STX429-2A (erg6); assay type: cell-based; conditions: 20 μg per disk; YEPD agar, 30° C., two days; differential of approximately 8 mm or more scored as active
Method: Liquid yeast extract, peptone and dextrose (YEPD) media is first prepared by mixing the following ingredients obtained from Difco
and autoclaving at 20 lbs for 15 min. Solidified YEPD media is prepared using the above ingredients, except that
(§1) Overnight cultures of S. cerevisiae strain DCX45-(pML82)-1B from Example 1 above and strain STX429-2A obtained from the Yeast Genetics Stock Center are grown in liquid YEPD media shaken at 30° C. to an OD600 of ˜5 or greater.
(§2) Test media are prepared by combining separately 0.5 parts STX429-2A inoculum to 100 parts of warm YEPD agar media and 2 parts of DCX45(pML82)-1B to 100 parts of warm YEPD agar media. Plates for each culture are poured. Test samples are prepared on disks in duplicate, and each is placed on a STX429-2A plate and a DCX45(pML82)-1B plate, testing 20 μg of test sample per disk. A ¼″ disk containing 10 μg of dinaconazole is used as a positive control on each plate.
(§3) The plates are incubated at 30° C. for two days and then examined to compare activity on the two strains. Actives produce a larger zone on the DCX45(pML82)-1B plate than on the STX429-2A plate. Only compounds producing a differential of approximately 8 mm or more are scored as active.

[2] = tested on: DCX45(pML82)-1B (disrupted cytochrome P450 reductase gene); test: disk sensitivity on YEPD of LEU+ spores / strain DCX45(pML82)-1B (Example 1); conditions: for sensitivity of LEU+ cultures compared with leu− cultures: spores plated on YEPD, disks containing the inhibitors
STX429-2A (erg 6) = conditions: strain STX429-2A (erg 6)
Method: as §2
The plates are incubated at 30° C. for two days and then examined to compare activity on the two strains. Actives produce a larger zone on the DCX45(pML82)-1B plate than on the STX429-2A plate.

DCX45 (pML82)-1B = test: imidazole sensitivity (limit of detection) on cytochrome P450 reductase disrupted strain; assay type: cell-based, Saccharomyces cerevisiae
Method: as §1, §2, §3
The imidazole sensitivity of these compounds in the strains is as follows: […]

erg6 mutants = conditions: cited from earlier work
[3] = tested on: cytochrome P450 reductase yeast mutants (TSY11-6C, TSY21); conditions: cited from earlier work

Compound	activity in the cytochrome P450 reductase screen (larger zone on the DCX45(pML82)-1B plate than on the STX429-2A plate) [1]	sensitivity of LEU+ cultures compared with leu− cultures [2]	Limit of Detection (DCX45 (pML82)-1B) [ng]	other results
Clc1ccc(COC(Cn2ccnc2)c2ccc(Cl)cc2Cl)c(Cl)c1 (centres unmarked) [miconazole]	active	–	–	–
C/C=C/C/C=C/CCC(=O)[C@H]1O[C@H]1C(N)=O [cerulenin]	–	–	–	sensitivity of strain DCX45(pML82)-1B [2]: increased sensitivity
Clc1ccc(COC(Cn2ccnc2)c2ccc(Cl)cc2Cl)cc1 (centres unmarked) [econazole]	active	more sensitive	2	Limit of Detection (STX429-2A (erg 6)): 50 ng
CC(C)(C)C(O)/C(=C/c1ccc(Cl)cc1Cl)n1cncn1 (centres unmarked) [dinaconazole]	active	more sensitive	2	Limit of Detection (STX429-2A (erg 6)): 50 ng
C[C@@H]1[C@H](O)[C@@H](C)/C=C/C=C/CC/C=C/C=C/C=C/C=C/C(O[C@H]2O[C@H](C)[C@@H](O)[C@H](N)[C@@H]2O)CC2O[C@](O)(CC(O)C(O)CCC(O)CC(O)CC(O)CC(=O)O[C@H]1C)CC(O)C2C(=O)O (some centres unmarked) [nystatin]	–	–	–	sensitivity or resistance of erg6 mutant strains (erg6 mutants): resistance
mevinolin [lactonized mevinolin]	no response	–	–	–
CN1C(=O)[C@]23CC4=CC=C[C@H](O)[C@H]4N2C(=O)[C@@]1(CO)SS3 [gliotoxin]	positive	–	–	–
CC(=O)N1CCN(c2ccc(OCC3COC(Cn4ccnc4)(c4ccc(Cl)cc4Cl)O3)cc2)CC1 (centres unmarked) [ketoconazole]	active	more sensitive	5	sensitivity of strain DCX45(pML82)-1B [2]: supersensitivity; sensitivity of strains TSY11-6C and TSY21 ([3]; disrupted cytochrome P450 reductase genes): sensitive; increase in sensitivity of cytochrome P450 reductase yeast mutants ([3]; mutants lacking the cytochrome P450 reductase gene): 200 fold
C[C@@H]1C[C@@H]([C@H](O)CC2CC(=O)NC(=O)C2)C(=O)[C@@H](C)C1 [cycloheximide]	–	–	–	sensitivity or resistance of erg6 mutant strains (erg6 mutants): hypersensitivity
